From ChEMBL document CHEMBL4800732, “Data for DCP probe TP-040” (2021)

Legend:
[1] = molecular target: Sodium-dependent dopamine transporter (Homo sapiens, UniProt Q01959); settings: Compound concentration 10.0 uM
[2] = molecular target: Alpha-2B adrenergic receptor (Homo sapiens) (UniProt P18089); settings: Compound concentration 10.0 uM
[3] = molecular target: Histamine H1 receptor (Homo sapiens) (UniProt P35367); settings: Compound concentration 10.0 uM
[4] = molecular target: Muscarinic acetylcholine receptor M5 (Homo sapiens) (UniProt P08912); settings: Compound concentration 10.0 uM
Sequence of Muscarinic acetylcholine receptor M5 (Homo sapiens) (P08912 whole entry): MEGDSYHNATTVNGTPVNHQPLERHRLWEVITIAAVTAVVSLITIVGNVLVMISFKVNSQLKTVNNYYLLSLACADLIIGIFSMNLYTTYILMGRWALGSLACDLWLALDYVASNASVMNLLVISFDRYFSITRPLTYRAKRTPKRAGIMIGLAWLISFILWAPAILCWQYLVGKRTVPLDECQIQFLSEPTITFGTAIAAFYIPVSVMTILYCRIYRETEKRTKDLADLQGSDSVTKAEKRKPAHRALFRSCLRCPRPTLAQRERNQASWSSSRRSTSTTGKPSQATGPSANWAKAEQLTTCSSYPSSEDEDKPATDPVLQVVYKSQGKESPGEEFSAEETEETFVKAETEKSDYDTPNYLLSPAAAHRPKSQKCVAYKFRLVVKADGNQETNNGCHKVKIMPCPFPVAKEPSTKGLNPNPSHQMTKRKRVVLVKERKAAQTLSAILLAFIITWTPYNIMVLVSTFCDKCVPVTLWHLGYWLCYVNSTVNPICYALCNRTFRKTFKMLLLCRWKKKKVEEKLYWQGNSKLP

[5] = molecular target: Sigma non-opioid intracellular receptor 1 (Homo sapiens, UniProt Q99720); settings: Compound concentration 10.0 uM
Sequence of Sigma non-opioid intracellular receptor 1 (Q99720 whole entry): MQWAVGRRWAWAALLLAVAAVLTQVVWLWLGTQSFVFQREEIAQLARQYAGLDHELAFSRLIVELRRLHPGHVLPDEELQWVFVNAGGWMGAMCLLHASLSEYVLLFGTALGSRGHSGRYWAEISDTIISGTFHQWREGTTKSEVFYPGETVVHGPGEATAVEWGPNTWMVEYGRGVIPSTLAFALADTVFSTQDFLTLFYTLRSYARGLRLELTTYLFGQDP

[6] = molecular target: T1, Alpha-2B adrenergic receptor (Homo sapiens, UniProt P18089); experiment: GPCRScan assay: inhibition of Alpha2B; set-up: radioligand conc. used [nm] 1.5 – 2.0, parental cells HEKT
T1 sequence (P18089 whole entry): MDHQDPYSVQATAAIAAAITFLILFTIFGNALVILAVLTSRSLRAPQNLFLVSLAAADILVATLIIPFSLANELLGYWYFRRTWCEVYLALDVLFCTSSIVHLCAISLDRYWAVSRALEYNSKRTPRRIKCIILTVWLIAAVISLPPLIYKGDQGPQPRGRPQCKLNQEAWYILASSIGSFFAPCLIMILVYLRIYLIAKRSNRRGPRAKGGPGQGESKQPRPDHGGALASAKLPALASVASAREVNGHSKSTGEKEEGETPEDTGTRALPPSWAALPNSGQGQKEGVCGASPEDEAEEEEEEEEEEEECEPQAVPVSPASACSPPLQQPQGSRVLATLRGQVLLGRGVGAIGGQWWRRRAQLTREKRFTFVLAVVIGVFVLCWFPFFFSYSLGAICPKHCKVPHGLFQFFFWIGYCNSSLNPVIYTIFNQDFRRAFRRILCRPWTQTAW

[7] = molecular target: Alpha-2C adrenergic receptor (Homo sapiens) (UniProt P18825); settings: Compound concentration 10.0 uM
[8] = molecular target: Kappa-type opioid receptor (Homo sapiens) (UniProt P41145); settings: Compound concentration 10.0 uM
Sequence of Kappa-type opioid receptor (Homo sapiens) (P41145 whole entry): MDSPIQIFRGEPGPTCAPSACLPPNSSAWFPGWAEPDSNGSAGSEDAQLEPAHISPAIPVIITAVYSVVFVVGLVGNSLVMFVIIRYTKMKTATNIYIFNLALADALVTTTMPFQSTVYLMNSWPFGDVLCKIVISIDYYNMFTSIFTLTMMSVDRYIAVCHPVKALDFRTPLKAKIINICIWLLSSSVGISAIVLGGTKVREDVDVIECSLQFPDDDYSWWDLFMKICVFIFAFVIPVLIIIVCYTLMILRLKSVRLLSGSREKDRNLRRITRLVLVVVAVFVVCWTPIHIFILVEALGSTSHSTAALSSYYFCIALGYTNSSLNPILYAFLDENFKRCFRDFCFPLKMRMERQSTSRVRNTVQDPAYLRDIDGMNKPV

[9] = molecular target: Beta-1 adrenergic receptor (Homo sapiens) (UniProt P08588); settings: Compound concentration 10.0 uM
[10] = molecular target: 5-hydroxytryptamine receptor 2A (Homo sapiens, UniProt P28223); settings: Compound concentration 10.0 uM
[11] = molecular target: Sodium-dependent noradrenaline transporter (Homo sapiens, UniProt P23975); settings: Compound concentration 10.0 uM
Sequence of Sodium-dependent noradrenaline transporter (P23975 whole entry): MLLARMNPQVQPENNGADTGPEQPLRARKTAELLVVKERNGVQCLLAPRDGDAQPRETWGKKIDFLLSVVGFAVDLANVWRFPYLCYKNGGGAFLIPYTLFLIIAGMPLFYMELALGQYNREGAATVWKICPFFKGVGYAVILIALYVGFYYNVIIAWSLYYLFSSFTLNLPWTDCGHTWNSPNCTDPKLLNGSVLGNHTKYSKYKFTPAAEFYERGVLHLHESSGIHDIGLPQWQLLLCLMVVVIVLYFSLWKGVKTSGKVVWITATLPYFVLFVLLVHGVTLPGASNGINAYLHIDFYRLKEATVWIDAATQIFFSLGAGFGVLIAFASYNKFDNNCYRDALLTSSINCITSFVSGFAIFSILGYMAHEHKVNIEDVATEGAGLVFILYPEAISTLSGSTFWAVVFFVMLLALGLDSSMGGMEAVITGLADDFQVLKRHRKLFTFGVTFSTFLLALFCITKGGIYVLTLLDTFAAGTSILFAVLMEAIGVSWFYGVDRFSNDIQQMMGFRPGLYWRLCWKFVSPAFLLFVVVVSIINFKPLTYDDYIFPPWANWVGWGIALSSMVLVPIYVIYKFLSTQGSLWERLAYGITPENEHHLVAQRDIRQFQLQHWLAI

[12] = molecular target: 5-hydroxytryptamine receptor 3A (Homo sapiens) (UniProt P46098); settings: Compound concentration 10.0 uM
Sequence of 5-hydroxytryptamine receptor 3A (Homo sapiens) (P46098 whole entry): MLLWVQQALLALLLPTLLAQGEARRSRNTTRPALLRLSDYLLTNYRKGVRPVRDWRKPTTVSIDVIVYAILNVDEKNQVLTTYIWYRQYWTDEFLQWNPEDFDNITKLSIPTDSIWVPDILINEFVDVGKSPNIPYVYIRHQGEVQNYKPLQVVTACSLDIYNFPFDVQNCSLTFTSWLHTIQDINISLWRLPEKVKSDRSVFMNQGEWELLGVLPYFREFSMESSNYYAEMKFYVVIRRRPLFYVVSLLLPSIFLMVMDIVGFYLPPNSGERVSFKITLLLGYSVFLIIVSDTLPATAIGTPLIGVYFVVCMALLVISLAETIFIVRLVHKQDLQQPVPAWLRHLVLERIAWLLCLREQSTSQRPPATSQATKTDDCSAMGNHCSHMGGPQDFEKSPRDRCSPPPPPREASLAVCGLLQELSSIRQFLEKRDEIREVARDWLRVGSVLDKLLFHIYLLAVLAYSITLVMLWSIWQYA

[13] = molecular target: Sodium-dependent serotonin transporter (Homo sapiens) (UniProt P31645); settings: Compound concentration 10.0 uM
[14] = organism: Rattus norvegicus; settings: Compound concentration 10.0 uM
[15] = molecular target: Alpha-2A adrenergic receptor (Homo sapiens) (UniProt P08913); settings: Compound concentration 10.0 uM
Sequence of Alpha-2A adrenergic receptor (Homo sapiens) (P08913 whole entry): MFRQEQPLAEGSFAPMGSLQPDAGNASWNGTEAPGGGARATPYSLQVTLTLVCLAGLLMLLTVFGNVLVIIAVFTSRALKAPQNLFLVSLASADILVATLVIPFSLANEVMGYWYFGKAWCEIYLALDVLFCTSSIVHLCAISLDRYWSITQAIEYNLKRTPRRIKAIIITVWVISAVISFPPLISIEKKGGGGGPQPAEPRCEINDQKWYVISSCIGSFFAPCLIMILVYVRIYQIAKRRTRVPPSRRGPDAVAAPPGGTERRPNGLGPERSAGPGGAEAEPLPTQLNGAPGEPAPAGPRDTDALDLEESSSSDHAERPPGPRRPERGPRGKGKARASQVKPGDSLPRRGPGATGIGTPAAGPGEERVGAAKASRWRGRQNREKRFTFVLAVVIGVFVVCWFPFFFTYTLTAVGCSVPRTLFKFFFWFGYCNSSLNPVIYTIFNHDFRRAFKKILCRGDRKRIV

[16] = molecular target: 5-hydroxytryptamine receptor 1E (Homo sapiens) (UniProt P28566); settings: Compound concentration 10.0 uM
[17] = molecular target: T2, 5-hydroxytryptamine receptor 2B (Homo sapiens, UniProt P41595); settings: Compound concentration 10.0 uM
T2 sequence (P41595 whole entry): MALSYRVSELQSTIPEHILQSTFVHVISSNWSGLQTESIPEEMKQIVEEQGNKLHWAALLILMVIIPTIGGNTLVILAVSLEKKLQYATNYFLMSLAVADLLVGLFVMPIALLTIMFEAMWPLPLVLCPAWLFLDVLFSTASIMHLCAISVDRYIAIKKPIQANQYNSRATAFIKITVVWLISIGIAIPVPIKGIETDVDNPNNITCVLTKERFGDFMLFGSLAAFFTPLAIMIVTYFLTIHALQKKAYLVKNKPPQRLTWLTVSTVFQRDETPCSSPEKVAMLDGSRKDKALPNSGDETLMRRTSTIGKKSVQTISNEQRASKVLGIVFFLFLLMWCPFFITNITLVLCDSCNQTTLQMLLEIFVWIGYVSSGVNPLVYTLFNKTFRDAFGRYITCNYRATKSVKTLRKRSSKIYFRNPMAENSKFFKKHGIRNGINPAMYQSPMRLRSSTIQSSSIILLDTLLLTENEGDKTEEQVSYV

[18] = molecular target: D(4) dopamine receptor (Homo sapiens) (UniProt P21917); settings: Compound concentration 10.0 uM
Sequence of D(4) dopamine receptor (Homo sapiens) (P21917 whole entry): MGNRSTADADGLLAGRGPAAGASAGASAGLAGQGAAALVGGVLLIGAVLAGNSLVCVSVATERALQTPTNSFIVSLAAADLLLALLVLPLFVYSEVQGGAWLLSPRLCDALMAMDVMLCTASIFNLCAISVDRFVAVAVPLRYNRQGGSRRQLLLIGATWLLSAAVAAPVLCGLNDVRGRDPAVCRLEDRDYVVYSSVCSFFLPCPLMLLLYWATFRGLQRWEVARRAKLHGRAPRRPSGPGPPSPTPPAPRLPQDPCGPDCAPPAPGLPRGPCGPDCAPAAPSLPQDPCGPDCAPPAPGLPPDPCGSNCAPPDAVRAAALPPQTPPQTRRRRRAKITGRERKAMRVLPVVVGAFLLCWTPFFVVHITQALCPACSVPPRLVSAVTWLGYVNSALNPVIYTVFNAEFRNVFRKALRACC

[19] = molecular target: T2, 5-hydroxytryptamine receptor 2B; experiment: GPCRScan assay: inhibition of 5-HT2B; set-up: radioligand conc. used [nm] 1.0 – 2.0, parental cells stable HEK
[20] = molecular target: 5-hydroxytryptamine receptor 6 (Homo sapiens, UniProt P50406); settings: Compound concentration 10.0 uM
[21] = molecular target: GABA-A receptor; anion channel (Rattus norvegicus) (UniProt O09028+P15431+P18506+P18508+P19969+P20236+P23574+P23576+P28471+P28473+P30191+P62813+P63079+P63138+Q91ZM7+Q9ES14); settings: Compound concentration 10.0 uM
[22] = molecular target: 5-hydroxytryptamine receptor 1D (Homo sapiens, UniProt P28221); experiment: GPCRScan assay: inhibition of 5-HT1D; set-up: radioligand conc. used [nm] 1.0 – 2.0, parental cells HEKT
Sequence of 5-hydroxytryptamine receptor 1D (P28221 whole entry): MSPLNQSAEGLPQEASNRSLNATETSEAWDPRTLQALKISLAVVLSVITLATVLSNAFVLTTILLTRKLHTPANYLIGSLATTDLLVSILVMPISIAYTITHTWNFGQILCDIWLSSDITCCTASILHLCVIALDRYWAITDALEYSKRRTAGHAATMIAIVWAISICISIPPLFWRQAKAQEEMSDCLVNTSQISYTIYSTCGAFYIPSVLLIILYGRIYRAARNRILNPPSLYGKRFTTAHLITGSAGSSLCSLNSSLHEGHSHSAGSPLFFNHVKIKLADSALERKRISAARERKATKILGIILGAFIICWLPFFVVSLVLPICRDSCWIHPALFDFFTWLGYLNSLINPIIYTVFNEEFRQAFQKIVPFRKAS

[23] = molecular target: Alpha-1A adrenergic receptor (Homo sapiens) (UniProt P35348); settings: Compound concentration 10.0 uM
[24] = molecular target: Beta-2 adrenergic receptor (Homo sapiens) (UniProt P07550); settings: Compound concentration 10.0 uM
Sequence of Beta-2 adrenergic receptor (Homo sapiens) (P07550 whole entry, looked up): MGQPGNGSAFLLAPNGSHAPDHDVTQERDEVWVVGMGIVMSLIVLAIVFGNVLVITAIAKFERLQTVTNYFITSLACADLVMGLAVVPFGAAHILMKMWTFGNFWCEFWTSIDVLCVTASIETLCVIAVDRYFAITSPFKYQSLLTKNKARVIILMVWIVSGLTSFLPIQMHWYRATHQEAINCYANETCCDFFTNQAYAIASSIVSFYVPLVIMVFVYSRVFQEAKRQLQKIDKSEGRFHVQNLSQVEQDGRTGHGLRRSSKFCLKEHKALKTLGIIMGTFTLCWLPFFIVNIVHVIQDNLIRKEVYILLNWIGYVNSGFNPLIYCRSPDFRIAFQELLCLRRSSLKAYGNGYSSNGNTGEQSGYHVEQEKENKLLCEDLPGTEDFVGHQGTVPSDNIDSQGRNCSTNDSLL

[25] = molecular target: T3, Alpha-2C adrenergic receptor (Homo sapiens, UniProt P18825); experiment: GPCRScan assay: inhibition of Alpha2C; set-up: radioligand conc. used [nm] 0.5 – 1.0, parental cells stable MDCK
T3 sequence (P18825 whole entry): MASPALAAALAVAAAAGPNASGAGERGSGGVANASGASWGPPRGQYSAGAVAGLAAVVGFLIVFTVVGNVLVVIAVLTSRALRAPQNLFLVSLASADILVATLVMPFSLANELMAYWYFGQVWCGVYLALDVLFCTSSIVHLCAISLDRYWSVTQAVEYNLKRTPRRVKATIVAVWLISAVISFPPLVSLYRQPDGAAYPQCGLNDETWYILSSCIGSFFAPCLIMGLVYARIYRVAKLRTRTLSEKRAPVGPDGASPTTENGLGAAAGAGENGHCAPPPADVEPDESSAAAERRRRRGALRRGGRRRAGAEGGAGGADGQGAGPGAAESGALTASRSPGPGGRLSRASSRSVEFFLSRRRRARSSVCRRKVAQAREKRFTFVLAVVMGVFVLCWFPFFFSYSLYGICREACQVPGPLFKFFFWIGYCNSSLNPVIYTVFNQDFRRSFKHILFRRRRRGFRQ

[26] = molecular target: T4, 5-hydroxytryptamine receptor 2C (Homo sapiens, UniProt P28335); experiment: GPCRScan assay: inhibition of 5-HT2C; set-up: radioligand conc. used [nm] 1.0 – 2.5, parental cells HEK T
T4 sequence (P28335 whole entry): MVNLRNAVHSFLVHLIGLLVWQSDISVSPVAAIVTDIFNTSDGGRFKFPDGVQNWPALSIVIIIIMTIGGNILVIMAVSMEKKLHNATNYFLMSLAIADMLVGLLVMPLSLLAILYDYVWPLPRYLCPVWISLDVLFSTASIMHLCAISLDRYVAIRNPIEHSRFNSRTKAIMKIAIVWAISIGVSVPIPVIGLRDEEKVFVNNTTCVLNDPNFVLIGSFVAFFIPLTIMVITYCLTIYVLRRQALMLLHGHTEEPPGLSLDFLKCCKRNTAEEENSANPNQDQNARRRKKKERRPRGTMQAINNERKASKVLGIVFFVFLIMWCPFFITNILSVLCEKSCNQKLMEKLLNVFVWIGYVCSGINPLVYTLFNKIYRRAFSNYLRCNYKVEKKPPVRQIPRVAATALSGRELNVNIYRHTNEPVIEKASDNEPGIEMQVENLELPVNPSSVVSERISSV

Sequence of Histamine H1 receptor (Homo sapiens) (P35367 whole entry): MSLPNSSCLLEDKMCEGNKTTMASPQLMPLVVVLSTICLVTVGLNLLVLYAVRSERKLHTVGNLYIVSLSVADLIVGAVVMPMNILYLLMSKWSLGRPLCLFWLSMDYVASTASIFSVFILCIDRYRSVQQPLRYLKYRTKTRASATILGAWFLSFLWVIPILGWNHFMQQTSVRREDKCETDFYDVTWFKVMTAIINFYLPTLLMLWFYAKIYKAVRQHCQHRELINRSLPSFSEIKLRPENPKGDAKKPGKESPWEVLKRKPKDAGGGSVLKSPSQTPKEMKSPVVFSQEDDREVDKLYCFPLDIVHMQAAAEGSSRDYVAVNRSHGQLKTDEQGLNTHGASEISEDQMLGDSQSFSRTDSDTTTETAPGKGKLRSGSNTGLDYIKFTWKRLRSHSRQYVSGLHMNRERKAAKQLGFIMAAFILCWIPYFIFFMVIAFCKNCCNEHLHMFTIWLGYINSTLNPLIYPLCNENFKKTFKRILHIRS

Row | SMILES | inhibition [1] | inhibition [2] | inhibition [3] | inhibition [4] | inhibition [5] | Ki ([6]; read-out: Ki) | inhibition [7] | inhibition [8] | inhibition [9] | inhibition [10] | inhibition [11] | inhibition [12] | inhibition [13] | inhibition [14] | inhibition [15] | inhibition [16] | inhibition [17] | inhibition [18] | Ki ([19]; read-out: Ki) | inhibition [20] | also measured
1 | CC1CCN(c2ccnc(NCc3cn(C)cn3)n2)CC1 [TP-040] | 20.6% | 56.3% | 40.1% | 25.1% | 36.6% | 2.57 µM | 51.8% | 36.6% | 3.97% | 33.8% | 75.8% | 27.7% | 5.83% | 17.9% | 12.8% | 3.36% | 81.8% | 3.89% | 0.699 µM | 32.1% | inhibition [21]: 67.4%; Ki ([22]; read-out: Ki): 0.417 µM; Ki ([22]; read-out: pKi (converted)): 0.631 µM; inhibition [23]: 15.4%; inhibition [24]: -3.61%; Ki ([25]; read-out: Ki): 3.43 µM; Ki ([25]; read-out: pKi (converted)): 3.39 µM; Ki ([26]; read-out: Ki): 0.374 µM; Ki ([26]; read-out: pKi (converted)): 0.363 µM
2 | CN1CCN(c2ccnc(NCCc3ccccc3)n2)CC1 [TP-040n] | 98% | 98% | 41.6% | 6.46% | 98.8% | 0.475 µM | 96.8% | 23.7% | 6.05% | 72.9% | 93.8% | 22.4% | 35.8% | -0.34% | 34.6% | 19.5% | 91.7% | 13% | 0.291 µM | 80.4% | Ki ([6]; read-out: pKi (converted)): 0.427 µM; Ki ([19]; read-out: pKi (converted)): 0.282 µM; inhibition [21]: 22.9%; Ki ([22]; read-out: Ki): 2.04 µM; Ki ([22]; read-out: pKi (converted)): 1.82 µM; inhibition [23]: 19.2%; inhibition [24]: -3.49%; Ki ([25]; read-out: Ki): 0.414 µM; Ki ([25]; read-out: pKi (converted)): 0.407 µM; Ki ([26]; read-out: Ki): 0.267 µM; Ki ([26]; read-out: pKi (converted)): 0.257 µM
